# Experimental data published in ChEMBL document CHEMBL2311484, “Synthesis and biological evaluation of a new series of phenothiazine-containing protein farnesyltransferase inhibitors” (Eur J Med Chem, 2013).
# Target: Protein farnesyltransferase (Homo sapiens, UniProt P49354+P49356)
# Experiment: Inhibition of human recombinant FTase activity using dansyl-GCVLS-peptide
# Assay type: protein-complex assay
row,IC50 [µM],SMILES
1,3.18,CN(C)c1cc[n+](C(C=C(C#N)C#N)C(=O)N2c3ccccc3Sc3ccc(Cl)cc32)cc1 (stereo not drawn)
2,4.92,CCOC(=O)/C(C#N)=C/C(C(=O)N1c2ccccc2Sc2ccc(Cl)cc21)[n+]1ccc(N(C)C)cc1 (stereo not drawn)
3,13.1,N#CC(C#N)=CC(C(=O)N1c2ccccc2Sc2ccccc21)[n+]1ccccc1 (stereo not drawn)
4,15,CCOC(=O)/C(C#N)=C/C(C(=O)N1c2ccccc2Sc2ccccc21)[n+]1ccccc1 (stereo not drawn)
5,11,Cc1ccc[n+](C(C=C(C#N)C#N)C(=O)N2c3ccccc3Sc3ccccc32)c1 (stereo not drawn)
6,7.01,CCOC(=O)/C(C#N)=C/C(C(=O)N1c2ccccc2Sc2ccccc21)[n+]1cccc(C)c1 (stereo not drawn)
7,10.3,COc1cc[n+](C(C=C(C#N)C#N)C(=O)N2c3ccccc3Sc3ccccc32)cc1 (stereo not drawn)
8,13.7,CCOC(=O)/C(C#N)=C/C(C(=O)N1c2ccccc2Sc2ccccc21)[n+]1ccc(OC)cc1 (stereo not drawn)
9,6.36,Cc1cc(C)c[n+](C(C=C(C#N)C#N)C(=O)N2c3ccccc3Sc3ccccc32)c1 (stereo not drawn)
10,7.27,CCOC(=O)/C(C#N)=C/C(C(=O)N1c2ccccc2Sc2ccccc21)[n+]1cc(C)cc(C)c1 (stereo not drawn)
11,0.65,N#CC(C#N)=CC=C1C=CN(CC(=O)N2c3ccccc3Sc3ccccc32)C=C1
12,0.63,CCOC(=O)/C(C#N)=C\C=C1C=CN(CC(=O)N2c3ccccc3Sc3ccccc32)C=C1
13,1.2,N#CC(C#N)=C/C=C1\C=CC=CN1CC(=O)N1c2ccccc2Sc2ccccc21
14,1.07,CCOC(=O)/C(C#N)=C\C=C1/C=CC=CN1CC(=O)N1c2ccccc2Sc2ccccc21
15,43.1,CCOC(=O)/C(C#N)=C\C=C1C=CN(CC(=O)N(CC)CC)C=C1
16,4.67,CN(C)c1cc[n+](C(C=C(C#N)C#N)C(=O)N2c3ccccc3Sc3ccccc32)cc1 (stereo not drawn)
17,5.33,CCOC(=O)/C(C#N)=C/C(C(=O)N1c2ccccc2Sc2ccccc21)[n+]1ccc(N(C)C)cc1 (stereo not drawn)
18,86.5,CN(C)c1cc[n+](C(/C=C/C(=O)O)C(=O)N2c3ccccc3Sc3ccccc32)cc1 (stereo not drawn)
